Source: ChEMBL document CHEMBL5500346, “Targeting EGFR degradation by autophagosome degraders” (Eur J Med Chem, 2024)
Calls of active or inactive are those of the source. The rule behind the calls is not given here.

Legend:
HCC827 = experiment: Antiproliferative activity against human HCC827 cells incubated for 72 hrs by CCK8 assay; type: functional, cell-based; conditions: HCC827, 72 h
PC-9 [1] = experiment: Antiproliferative activity against human PC-9 cells incubated for 72 hrs by CCK8 assay; type: functional, cell-based; conditions: PC-9, 72 h
NCI-H1975 = experiment: Antiproliferative activity against human NCI-H1975 cells incubated for 72 hrs by CCK8 assay; type: functional, cell-based; conditions: NCI-H1975, 72 h
[2] = molecular target: T1, Microtubule-associated protein 1 light chain 3 beta/Epidermal growth factor receptor (Homo sapiens, UniProt P00533+Q9GZQ8); experiment: ATTEC activity at LC3B/EGFR in human HCC827 cells assessed as protein degradation by immunoblot analysis; type: cell-based
[3] = molecular target: T1, Microtubule-associated protein 1 light chain 3 beta/Epidermal growth factor receptor; experiment: ATTEC activity at LC3B/EGFR in human PC-9 cells assessed as protein degradation; type: cell-based
[4] = molecular target: T1, Microtubule-associated protein 1 light chain 3 beta/Epidermal growth factor receptor; experiment: ATTEC activity at LC3B/EGFR in human HCC827 cells assessed as protein degradation; type: cell-based
[5] = molecular target: T1, Microtubule-associated protein 1 light chain 3 beta/Epidermal growth factor receptor; experiment: ATTEC activity at LC3B/EGFR in Gefitinib-resistant human PC-9 cells assessed as protein degradation; type: cell-based
[6] = molecular target: T1, Microtubule-associated protein 1 light chain 3 beta/Epidermal growth factor receptor; experiment: ATTEC activity at LC3B/EGFR in human HCC827 cells assessed as protein degradation at 1 uM measured after 48 hrs by Western blot analysis; type: cell-based
[7] = molecular target: T1, Microtubule-associated protein 1 light chain 3 beta/Epidermal growth factor receptor; experiment: ATTEC activity at LC3B/EGFR in CHX-treated human HCC827 cells assessed as protein degradation at 1 uM incubated for 12 hrs by Western blot analysis; type: cell-based
[8] = molecular target: T1, Microtubule-associated protein 1 light chain 3 beta/Epidermal growth factor receptor; experiment: ATTEC activity at LC3B/EGFR in human HCC827 cells assessed as protein degradation at 1 uM incubated for 18 hrs by global proteomic profiling analysis; type: cell-based
NCI-H3255 = experiment: Inhibition of colony formation in human NCI-H3255 cells incubated for 2 weeks by crystal violet staining based analysis; type: functional, cell-based; conditions: dose 0.1-10 µM
[9] = Half life in Sprague-Dawley rat at 20 mg/kg, po; type: ADME, organism-based; conditions: in vivo
[10] = Toxicity in NOD-SCID mouse bearing human PC-9 cells assessed as body weight loss at 5 to 20 mg/kg, ip administered every other day for 3 weeks; type: organism-based; conditions: in vivo, 504 h, dose 5-20 mg/kg
PC-9 [11] = experiment: Anti-tumor activity against human PC-9 cells implanted in NOD-SCID mouse at 5 mg/kg, ip administered every other day for 3 weeks relative to control; type: functional; conditions: PC-9, 504 h, read-out: TGI
PC-9 [12] = experiment: In vivo ATTEC activity at LC3B/EGFR in human PC-9 cells implanted in NOD-SCID mouse assessed as protein degradation at 10 mg/kg, ip administered every other day for 3 weeks by Western blot analysis; type: functional, organism-based
[13] = Toxicity in C57BL/6 mouse assessed as serum AST level at 100 mg/kg, ip measured after 24 hrs (reference value: 234.682 U/L); type: organism-based; conditions: in vivo
[14] = Toxicity in C57BL/6 mouse assessed as serum GGT level at 100 mg/kg, ip measured after 24 hrs (reference value: 1.62 U/L); type: organism-based; conditions: in vivo
[15] = Toxicity in C57BL/6 mouse assessed as serum TBIL level at 100 mg/kg, ip measured after 24 hrs (reference value: 18.958 umol/L); type: organism-based; conditions: in vivo
[16] = Toxicity in C57BL/6 mouse assessed as serum ALB level at 100 mg/kg, ip measured after 24 hrs (reference value: 40.01 g/L); type: organism-based; conditions: in vivo
[17] = Toxicity in C57BL/6 mouse assessed as serum uric acid level at 100 mg/kg, ip measured after 24 hrs (reference value: 78.784 umol/L); type: organism-based; conditions: in vivo
[18] = Toxicity in C57BL/6 mouse assessed as serum GGT level at 200 mg/kg, ip measured after 24 hrs (reference value: 1.62 U/L); type: organism-based; conditions: in vivo
[19] = Toxicity in C57BL/6 mouse assessed as serum ALP level at 200 mg/kg, ip measured after 24 hrs (reference value: 250.654 U/L); type: organism-based; conditions: in vivo
[20] = Toxicity in C57BL/6 mouse assessed as serum urea level at 200 mg/kg, ip measured after 24 hrs (reference value: 18.934 mmol/L); type: organism-based; conditions: in vivo
[21] = Toxicity in C57BL/6 mouse assessed as serum creatinine level at 200 mg/kg, ip measured after 24 hrs (reference value: 32.258 umol/L); type: organism-based; conditions: in vivo
[22] = Toxicity in C57BL/6 mouse assessed as serum uric acid level at 200 mg/kg, ip measured after 24 hrs (reference value: 78.784 umol/L); type: organism-based; conditions: in vivo
[23] = Toxicity in C57BL/6 mouse assessed as change in hematological indicators upto 200 mg/kg, ip measured after 24 hrs by blood cell analysis; type: organism-based; conditions: in vivo

COc1cc2ncnc(Nc3ccc(F)c(Cl)c3)c2cc1OCCOCCOCCOCCNC(=O)COc1c(Br)cc(/C=C2\C(=O)Nc3ccc(I)cc32)cc1Br
IC50 (HCC827): 278 nM | IC50 (PC-9 [1]): 5610 nM | IC50 (NCI-H1975): > 10000 nM | DC50 [2]: 980 nM | Activity [3]: Active | Activity [4]: Active | Activity [5]: inactive | Activity [6]: Active | Activity [7]: inactive | Activity [8]: Active | inhibition (NCI-H3255): Dose-Dependent Effect | half-life [9]: 18.4 min | Activity [10]: Non-Toxic | inhibition in vivo at 5 mg/kg (PC-9 [11]): 35% | Activity (PC-9 [12]): Active | Activity [13]: 229.632 U/L | Activity [14]: 1.682 U/L | Activity [15]: 17.83 µmol/L | Activity [16]: 35.48 g/L | Activity [17]: 44.454 µmol/L | Activity [18]: 1.712 U/L | Activity [19]: 177.394 U/L | Activity [20]: 19.029 mmol/L | Activity [21]: 30.848 µmol/L | Activity [22]: 49.734 µmol/L | Activity [23]: Non-Toxic
